Reference: US12258574B2, “Methods and compositions for transducing lymphocytes and regulating the activity thereof” (Exuma Biotech Corp., priority 2016, dated 2025)

B1: MRB-CAR T1A: anti-Target 1 microenvironment restricted CAR; VH SEQ ID NO:281, Linker 1, VL SEQ ID NO:282; CD28 stalk/TM, ICΔ, CD3Z (protein)
chain: EVQLVQSGAEVKKPGATVKISCKVSGYSFWGATMNWIRQPPGKGLEWIGLIKPSNGGTSYNQKFKGRVTISADKSISTAYLQWSSLKASDTAMYYCAHGHYESYEAMDYWGQGTLVTVSSGGGGSGGGGSGGGGSDIQMTQSPSSLSASVGDRVTITCKASQDVVSAVAWYQQKPGQAPRLLIYWQDTRHTGVPSRFSGSGSGTEFTLTISSLQPDDFATYYCQEHFSPPLTFGQGTKVEIKFWVLVVVGGVLACYSLLVTVAFIIFWVRSKRSRLLHSDYMNMTPRRPGPTRKHYQAYAAARDFAAYRSRVKFSRSADAPAYQQGQNQLYNELNLGRREEYDVLDKRRGRDPEMGGKPRRKNPQEGLYNELQKDKMAEAYSEIGMKGERRRGKGHDGLYQGLSTATKDTYDALHMQALPPR
notes: anti-Target 1 microenvironment restricted CAR; CD28 stalk/TM, ICΔ, CD3Z

Legend:
[1] = test system: cathepsin B, L, S, K, V, and D; conditions: 1 ml/mouse 1 M ip, 30 min post administration, n=3, vs PBS
Excerpt: Fortunately, the relative protease activity of cathepsin is higher at lower pH and lower at higher pH. Therefore, the measurement of intratumoral cathepsin activity can serve as a surrogate measure of the pH of the tumor microenvironment. To measure in vivo activities of cathepsin B, L, S, K, V, and D, the near-infrared ProSense 750 FAST probe (PerkinElmer) was used.
Mice were handled in accordance with Institutional Animal Care and Use Committee approved protocols. Subcutaneous (sc) Chinese Hamster Ovary (CHO) tumor xenografts were established in the hind flank of 12-14 week old female B-NSG mice (NOD-PrkdcscidIl2rgtm1/Bcgen (Beijing Biocytogen Co. Ltd.). Briefly, cultured CHO cells (ATCC, Manassas, VA) were washed in DPBS (ThermoFisher), counted, resuspended in cold DPBS and mixed with an appropriate volume of Matrigel ECM (Corning; final concentration 5 mg/mL) at a concentration of 1.5×10^6 cells/200 μl on ice.
Animals were prepared for injection using standard approved anesthesia with hair removal (Nair) prior to injection. 200 μl of the cell suspension in ECM was injected sc into the rear flanks of the mice. Once tumors were palpable, the tumors were measured using calipers 2 times/week. Tumor volume was calculated using the following equation: (longest diameter*shortest diameter^2)/2. […]

[2] = 50-milliliter bolus; cited from earlier work
CHO-Target 1 cells = experiment: pH shift cytotoxicity assay / HCl switch RTCA killing assay (xCELLigence); format: cell-based; conditions: added about 3 hours after effector cells, E/T 1:1
Procedure: The cytotoxic activity of transduced T cells before and after pH change by addition of NaHCO3 or NaOH was measured using the xCELLigence System. Briefly, one day before the experiment, target cells (CHO cells stably transfected with a construct to express Target 1 on the cell surface (CHO-Target 1 cells)), were seeded into a 96-well E-plate (ACEA; San Diego, CA) at 10,000 cells/well with X-VIVO 15 media containing 40 mM HEPES and 40 mM PIPES, pH 6.7. Cryopreserved effector cells previously transduced with either lentiviral particles containing the nucleic acid encoding T1B or C1 (T1BVP and C1VP, respectively) produced as discussed above, were thawed and cultured for two days in X-VIVO 15 media containing 100 IU/mL of IL-2 (R&D Systems, Minneapolis, MN). On the day of the experiment, cells transduced with T1BVP or C1VP were washed and resuspended in X-VIVO 15 media containing 40 mM HEPES and 40 mM PIPES, pH 6.7 and then added into the experimental wells at effector cell/target cell ratios (E/T) of 1:1.
Impedance readings measured on the xCELLigence System (ACEA) were taken every 5 minutes and reported as the Cell Index (CI) to quantitate cell confluency as a measure of cell proliferation/cell lysis. Approximately 3 hours after effector cell addition, 8 μl of 7.5% NaHCO3 or 14 μl of 0.5 M NaOH was added into the wells with X-VIVO 15 media containing 40 mM HEPES and 40 mM PIPES, pH 6.7 to increase the pH from 6.7 to 7.4. Impedance readings were continued for approximately 20 hours after effector cell addition. Percentage of specific cytolysis was calculated as follows ((CI Target+C1VP transduced effector T cells)−(CI Target+T1BVP transduced effector T cells))/(CI Target+C1VP transduced effector T cells)×100.
The cytotoxic activity of transduced T cells before and after pH change by addition of HCl was measured using the xCELLigence System. Briefly, one day before the experiment, CHO-Target 1 cells were seeded into a 96 well E-plate at 10,000 cells/well with X-VIVO 15 media containing 40 mM HEPES and 40 mM PIPES, pH 7.4. Cryopreserved effector cells previously transduced with either C1VP or T1BVP, were thawed and cultured for two days in X-VIVO 15 media containing 100 IU/mL of IL-2. On the day of the experiment, cells transduced with T1BVP or C1VP were washed and resuspended in X-VIVO 15 media containing 40 mM HEPES and 40 mM PIPES, pH 7.4 and then added into experimental wells at effector cell/target cell ratios (E/T) of 1:1.
Impedance readings were taken every 5 minutes and reported as the Cell Index (CI). […] Impedance readings were continued for approximately 20 hours after effector cell addition. Percentage of specific cytolysis was calculated as follows ((CI Target+C1VP transduced effector T cells)−(CI Target+T1BVP transduced effector T cells))/(CI Target C1VP)×100.

[3] = 1.5 hours post ip administration, n=3, relative to PBS-treated mice
Excerpt: Phenol red is a pH indicator which undergoes a pH-dependent color transition. […] A solution of phenol red has a yellow color at a pH of 6.4 or below, an orange color around pH 7.0, a red color around pH 7.4, and a purple color above pH 7.8.
The CHO xenograft tumor was excised from each mouse. The xenograft tumors were split into two halves with a scalpel and placed on a petri dish. The tumor tissue halves were then cut/sliced repeatedly using the scalpel. Water or 0.05% phenol red solution (50 mg phenol red/100 ml water) was added dropwise to each tumor half, respectively. The color was noted and images were taken of the treated tumor xenografts and of the phenol red solution remaining on the petri plate once the tumor xenograft samples were removed.

CHO-Target 1 = experiment: xCELLigence cytotoxicity of MRB-CAR T cells at pH 6.7 vs pH 7.4, CHO-Target 1; format: cell-based; conditions: E/T 3:1, 1:1, 0.3:1; about 40 hours
Procedure: The cytotoxic activity of the candidate MRB-CARs against target cells expressing either Target 1 or Target 2 (CHO-Target 1 and CHO-Target 2, respectively) was analyzed at a pH of 7.4 (normal tissue) or a pH of 6.7 (reduced pH of a tumor microenvironment) by xCELLigence System (ACEA). Briefly, target cells expressing Target 1 or Target 2 were seeded to a 96-well E-plate at 20,000 cells/well with tumor conditional or normal medium one day before the experiment. Effector cells were rested for two days in human T cell medium containing 100 IU/mL of IL-2 and added into experimental wells containing Target cells at effector cell/target cell ratios (E/T) of 3:1, 1:1, and 0.3:1.
Impedance readings were taken every 5 minutes for approximately 40 hours after effector cell addition and impedance was reported as the Cell Index (CI). Percentage of specific cytolysis was calculated as follows ((CI Target+Control virus transduced effector T cells)−(CI Target+effector T cells transduced with CARs directed to Target 1 or Target 2))/(CI Target+Control virus transduced effector T cells)×100.

Molecule | intratumoral cathepsin activity (RFU), surrogate of tumor microenvironment pH [1] | rise of serum pH [2] | effect on cytotoxic activity of MRB-CAR T cells of raising media pH from 6.7 to 7.4 (CHO-Target 1 cells) | color of phenol red indicator on excised tumor tissue [3] | cytotoxic activity on target cells at pH 6.7 versus pH 7.4 (CHO-Target 1)
O=C([O-])O.[Na+] [sodium bicarbonate] | decreased cathepsin activity | approximately 0.1 pH unit | inhibited the cytotoxic activity | from yellow/orange to red | –
B1 | – | – | – | – | more effective at lysing target cells at a pH of 6.7 than at a pH of 7.4
